One data set addresses T1, JAK2(h) (Homo sapiens, UniProt O60674).
T1 construct: purchased Eurofins, UK
Description: In vitro activity assay of JAK2 kinase (radiometric, [γ-33P]-ATP). Type of data set: biochemical. The settings on record: recombinant human JAK2, 40 min at room temperature. The procedure: (§1) Recombinant human JAK1, JAK2, JAK3 and Tyk2 […], and main instruments and reagents were all provided by Eurofins, UK.
(§2) Dilution of JAK2, JAK3 and TYK2: 20 mM 3-(N-morpholino)propanesulfonic acid (MOPS), 1 mM EDTA, 0.01% Brij-35.5% glycerol, 0.1% β-mercaptoethanol, and 1 mg/mL BSA; dilution of JAK1: 20 mM TRIS, 0.2 mM EDTA, 0.1% β-mercaptoethanol, and 0.01% Brij-35.5% glycerol. All compounds were prepared as 100% DMSO solutions, and the concentration was brought to 50 times the final assay concentration. A test compound was diluted with a 3-fold gradient, with a total of 9 final concentrations ranging from 10 μM to […]. The DMSO content in the assay reaction was 2%. The working stock solution of the compound was added into the assay wells as a first component of the reaction, and the remaining components were then added according to the protocol detailed for the assay below.
JAK2(h) was incubated with 8 mM MOPS pH 7.0, 0.2 mM EDTA, 100 μM […] (SEQ ID NO: 2), 10 mM magnesium acetate and [γ-^33P]-ATP (the activity and concentration were tailored as required). The reaction was started by adding a Mg/ATP mixture, and terminated by adding 0.5% phosphoric acid after 40 min of incubation at room temperature. 10 μL of the reactant was then dotted on a P30 filter pad, washed three times with 0.425% phosphoric acid and once with methanol within 4 minutes, and dried, and scintillation counting was performed.
(§3) The IC50 results were obtained by analysis using XLFITS (formula 205) of IDBS company and detailed in Table 1.

The nature of data set [1]: Pharmacokinetic (PK) experiment in rats. It is filed as in vivo. The following applies: Sprague-Dawley (SD), rat, plasma, po, male SD rats; for AUC(0-inf) / Cmax / half-life: fasted, tail vein injection 1 mg/kg and gavage 5 mg/kg, route not given; for AUC(0-inf): read-out: AUC0-inf (area under plasma concentration-time curve from time 0 extrapolated to infinite time); for Cmax: read-out: Cmax (peak concentration); for half-life: read-out: T1/2 (half-life) (converted); for bioavailability: gavage 5 mg/kg vs tail vein injection 1 mg/kg. As for the experimental part:
A test compound was dissolved [5% DMSO, 95% (12% SBE-β-CD)] to give a clear solution, which was administered into male rats (SD) (overnight fasting, 7-8 weeks old) by tail vein injection and by gavage, respectively. After administration of the test compound, blood was collected from the mandibular vein and centrifuged to obtain plasma at 0.117, 0.333, 1, 2, 4, 7 and 24 h in the tail vein injection group (1 mg/kg), and at 0.25, 0.5, 1, 2, 4, 8 and 24 h in the gavage group (5 mg/kg). The plasma concentration was measured using LC-MS/MS method, and the relevant pharmacokinetic parameters were calculated using WinNonlin™ Version 6.3 pharmacokinetic software with non-compartmental model linear logarithmic trapezoidal method.

A further data set deals with T2, JAK3(h) (Homo sapiens, UniProt P52333).
T2 construct: purchased Eurofins, UK
T2 sequence (P52333 1-1124): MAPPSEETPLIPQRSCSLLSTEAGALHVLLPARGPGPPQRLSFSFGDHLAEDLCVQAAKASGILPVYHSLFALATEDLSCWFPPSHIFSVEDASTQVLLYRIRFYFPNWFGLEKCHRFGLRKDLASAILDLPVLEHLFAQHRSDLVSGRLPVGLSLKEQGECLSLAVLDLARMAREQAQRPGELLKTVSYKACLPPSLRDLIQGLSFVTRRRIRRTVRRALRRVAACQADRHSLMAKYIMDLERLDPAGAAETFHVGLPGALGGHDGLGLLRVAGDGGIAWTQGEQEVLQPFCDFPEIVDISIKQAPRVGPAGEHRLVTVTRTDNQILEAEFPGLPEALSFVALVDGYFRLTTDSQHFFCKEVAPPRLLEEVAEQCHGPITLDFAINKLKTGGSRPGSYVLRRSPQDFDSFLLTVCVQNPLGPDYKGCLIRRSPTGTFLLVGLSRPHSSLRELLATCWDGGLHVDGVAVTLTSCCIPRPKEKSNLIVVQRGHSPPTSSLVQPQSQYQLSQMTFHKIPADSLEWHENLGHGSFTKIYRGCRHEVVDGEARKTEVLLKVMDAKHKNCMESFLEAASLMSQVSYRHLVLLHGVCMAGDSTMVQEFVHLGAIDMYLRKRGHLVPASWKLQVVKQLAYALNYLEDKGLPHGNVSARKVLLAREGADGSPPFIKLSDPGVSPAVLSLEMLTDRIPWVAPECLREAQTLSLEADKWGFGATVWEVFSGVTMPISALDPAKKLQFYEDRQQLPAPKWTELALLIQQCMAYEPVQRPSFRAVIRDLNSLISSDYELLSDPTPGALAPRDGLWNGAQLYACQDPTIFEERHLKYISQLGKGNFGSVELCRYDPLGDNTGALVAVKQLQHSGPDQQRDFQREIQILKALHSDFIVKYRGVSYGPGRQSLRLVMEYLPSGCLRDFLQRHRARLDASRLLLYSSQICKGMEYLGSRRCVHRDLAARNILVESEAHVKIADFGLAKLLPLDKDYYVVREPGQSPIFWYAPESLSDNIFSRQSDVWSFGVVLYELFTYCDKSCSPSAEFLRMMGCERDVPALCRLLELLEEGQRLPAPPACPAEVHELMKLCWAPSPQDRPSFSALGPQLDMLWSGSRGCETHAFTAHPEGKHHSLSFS
Description: In vitro activity assay of JAK3 kinase (radiometric, [γ-33P]-ATP). Type of data set: biochemical. The settings on record: recombinant human JAK3, 40 min at room temperature. The procedure:
as §1, §2
JAK3(h) was incubated with 8 mM MOPS pH 7.0, 0.2 mM EDTA, 500 μM GGEEEEYFELVKKKK (SEQ ID NO: 3), 10 mM magnesium acetate and [γ-^33P]-ATP (the activity and concentration were tailored as required). The reaction was started by adding a Mg/ATP mixture, and terminated by adding 0.5% phosphoric acid after 40 min of incubation at room temperature. 10 μL of the reactant was then dotted on a P30 filter pad, washed three times with 0.425% phosphoric acid and once with methanol within 4 minutes, and dried, and scintillation counting was performed.
as §3

In another data set the target is T3, JAK1(h) (Homo sapiens, UniProt P23458).
T3 construct: purchased Eurofins, UK
Description: In vitro activity assay of JAK1 kinase (radiometric, [γ-33P]-ATP). Type of data set: biochemical. The settings on record: recombinant human JAK1, 40 min at room temperature. As for the experimental part:
as §1, §2
JAK1(h) was incubated with 20 mM Tris/HC pH 7.5, 0.2 mM EDTA, 500 μM MGEEPLYWSFPAKKK (SEQ ID NO: 1), 10 mM magnesium acetate and [γ-^33P]-ATP (the activity and concentration were tailored as required). The reaction was started by adding a Mg/ATP mixture, and terminated by adding 0.5% phosphoric acid after 40 min of incubation at room temperature. 10 μL of the reactant was then dotted on a P30 filter pad, washed three times with 0.425% phosphoric acid and once with methanol within 4 minutes, and dried, and scintillation counting was performed.
as §3

T3 sequence (P23458 whole entry): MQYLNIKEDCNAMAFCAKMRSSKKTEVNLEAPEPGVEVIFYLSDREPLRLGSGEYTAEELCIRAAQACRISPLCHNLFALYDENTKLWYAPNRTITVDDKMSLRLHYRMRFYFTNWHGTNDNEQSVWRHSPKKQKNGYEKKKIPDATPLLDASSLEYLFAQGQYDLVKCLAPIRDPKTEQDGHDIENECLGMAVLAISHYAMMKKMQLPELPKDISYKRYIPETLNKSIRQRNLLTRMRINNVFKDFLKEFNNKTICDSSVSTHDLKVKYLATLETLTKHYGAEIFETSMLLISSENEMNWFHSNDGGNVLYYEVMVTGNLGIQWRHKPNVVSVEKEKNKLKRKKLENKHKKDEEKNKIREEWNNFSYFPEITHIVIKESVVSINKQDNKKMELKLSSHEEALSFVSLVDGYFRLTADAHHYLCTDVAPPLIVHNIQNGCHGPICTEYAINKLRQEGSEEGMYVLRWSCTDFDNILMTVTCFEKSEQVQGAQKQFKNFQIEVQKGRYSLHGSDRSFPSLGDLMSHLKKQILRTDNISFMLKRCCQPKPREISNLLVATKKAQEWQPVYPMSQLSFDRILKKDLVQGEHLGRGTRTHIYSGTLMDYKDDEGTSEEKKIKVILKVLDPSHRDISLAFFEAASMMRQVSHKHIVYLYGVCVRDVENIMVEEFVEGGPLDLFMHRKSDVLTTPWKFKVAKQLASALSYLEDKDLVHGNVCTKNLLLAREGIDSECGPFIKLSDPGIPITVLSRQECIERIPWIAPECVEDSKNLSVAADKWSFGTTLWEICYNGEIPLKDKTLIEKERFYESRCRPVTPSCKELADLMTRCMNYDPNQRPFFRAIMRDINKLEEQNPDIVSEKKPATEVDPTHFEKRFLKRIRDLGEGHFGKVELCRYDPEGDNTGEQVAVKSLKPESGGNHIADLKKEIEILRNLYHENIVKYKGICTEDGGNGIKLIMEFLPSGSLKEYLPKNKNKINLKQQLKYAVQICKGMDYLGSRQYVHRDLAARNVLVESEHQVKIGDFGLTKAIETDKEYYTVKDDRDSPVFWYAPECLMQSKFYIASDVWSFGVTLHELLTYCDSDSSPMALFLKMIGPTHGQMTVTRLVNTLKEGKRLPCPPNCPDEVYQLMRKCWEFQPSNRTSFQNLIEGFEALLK
T1 sequence (O60674 whole entry): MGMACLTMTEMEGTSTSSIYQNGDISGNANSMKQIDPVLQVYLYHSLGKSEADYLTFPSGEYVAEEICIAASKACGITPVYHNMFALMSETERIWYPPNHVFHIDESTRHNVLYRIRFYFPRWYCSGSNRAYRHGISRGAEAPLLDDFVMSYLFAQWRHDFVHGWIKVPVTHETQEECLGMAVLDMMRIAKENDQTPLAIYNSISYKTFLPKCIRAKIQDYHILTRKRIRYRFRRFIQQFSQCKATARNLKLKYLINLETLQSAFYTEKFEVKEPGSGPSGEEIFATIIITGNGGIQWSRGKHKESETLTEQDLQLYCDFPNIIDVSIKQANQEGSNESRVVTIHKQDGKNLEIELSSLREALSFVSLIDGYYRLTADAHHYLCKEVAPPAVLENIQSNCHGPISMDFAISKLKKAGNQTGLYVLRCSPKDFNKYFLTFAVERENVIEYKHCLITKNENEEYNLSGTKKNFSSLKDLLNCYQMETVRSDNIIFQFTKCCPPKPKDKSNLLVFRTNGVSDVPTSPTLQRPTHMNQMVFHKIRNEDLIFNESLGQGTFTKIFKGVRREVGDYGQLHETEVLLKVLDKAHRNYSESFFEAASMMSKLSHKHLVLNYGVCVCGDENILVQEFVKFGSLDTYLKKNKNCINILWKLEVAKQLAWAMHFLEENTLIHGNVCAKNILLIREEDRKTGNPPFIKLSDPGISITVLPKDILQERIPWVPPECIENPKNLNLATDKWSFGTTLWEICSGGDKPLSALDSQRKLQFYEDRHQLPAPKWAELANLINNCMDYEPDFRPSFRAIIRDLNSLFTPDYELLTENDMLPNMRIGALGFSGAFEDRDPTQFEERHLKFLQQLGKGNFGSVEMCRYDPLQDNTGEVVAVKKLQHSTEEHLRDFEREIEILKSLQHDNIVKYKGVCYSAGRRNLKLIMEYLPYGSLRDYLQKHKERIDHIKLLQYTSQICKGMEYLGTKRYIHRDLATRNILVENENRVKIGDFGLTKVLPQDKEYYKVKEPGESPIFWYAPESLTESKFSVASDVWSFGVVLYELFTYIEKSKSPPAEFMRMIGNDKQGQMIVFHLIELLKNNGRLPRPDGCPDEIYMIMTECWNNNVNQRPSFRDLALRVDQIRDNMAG

On to `N#Cc1cc2n(n1)CC(n1cnc3cnc4[nH]ccc4c31)CC2` (single isomer, unassigned) [Compound 1A], for which the half-maximal inhibitory concentration (IC50) (in general, the midpoint of a concentration-inhibition curve) on JAK2(h) is 27 nM. For the same compound, in data set [1], the AUC(0-inf) is 8.51 µM·h, the Cmax was 2.94 µM, the half-life was 1.35 h and the bioavailability was 41.8%. At JAK3(h), the IC50 was found to be 30.8 nM. Besides, the IC50 at JAK1(h) amounted to 1.3 nM.

`COc1nc2cnc3[nH]ccc3c2n1[C@@H]1CCc2cc(C#N)nn2C1` [Compound 4]: the IC50 on JAK2(h) came out at 7 nM. Besides, in data set [1], the AUC(0-inf) was 67.8 µM·h, the Cmax is 10.2 µM, the half-life is 3.65 h and the bioavailability was 119%. Besides, on JAK3(h), the IC50 is 27.3 nM. In addition, at JAK1(h), the IC50 was 0.9 nM.

Values taken from patent US20230017539A1, “TRI-HETEROCYCLIC COMPOUND AS JAK INHIBITOR, AND USE THEREOF” (CHIA TAI TIANQING PHARMACEUTICAL GROUP CO., LTD., priority 2019, published 2023).
